Values of other authors in US20150018389A1, “METHOD FOR TREATING PARKINSONS DISEASE AND OTHER NEUROLOGICAL DISEASES” (priority 2013, published 2015).

Key:
[1] = test system: tumor necrosis factor alpha; conditions: erythema nodosum leprosum, treatment with thalidomide (Sampaio et al. 1992)
[2] = serum vs in vitro pH 7.4
HIV [3] = conditions: infected cell lines induced with tumor necrosis factor alpha (Schauf et al. 1992)
[4] = not given; remark: listed apart in the source
CD4 lymphocyte counts = conditions: erythema nodosum leprosum (Moncada et al. 1985)
HIV [5] = conditions: peripheral blood mononuclear cells of HIV-infected patients
[6] = not given; remark: listed apart in the source
[7] = test system: tumor necrosis factor alpha production by stimulated monocytes; conditions: stimulated monocytes (Sampaio et al. 1991)

Compound: O=C1CCC(N2C(=O)c3ccccc3C2=O)C(=O)N1 (racemic) [Thalidomide, N-phthalidoglutarimide]
- elevated tumor necrosis factor alpha levels [1]: reduced
- hydrolytic cleavage in serum compared with in vitro at pH 7.4 [2]: much slower
- absorption (humans, orally administered): poorly absorbed
- plasma protein binding (in vivo): highly bound to plasma proteins
- HIV expression (HIV [3]): inhibited
- toxicity in a series of animal studies [4]: has not been toxic
- previously suppressed CD4 lymphocyte counts (CD4 lymphocyte counts): increases
- HIV production (HIV [5]): reduce
- side effects in humans [6]: somnolence, teratogenicity and, upon extended administration, peripheral neuropathy
- tumor necrosis factor alpha production [7]: inhibit
